Experimental data taken from ChEMBL document CHEMBL6127126, “Closing the Design-Make-Test-Analyze Loop: Interplay between Experiments and Predictions Drives PROTACs Bioavailability” (J Med Chem, 2024).

What was measured:
[1] = Lipophilicity, logD of compound in octanol-water at pH 7.4 by reverse phase HPLC analysis; type: physicochemical
[2] = Oral bioavailability in C57 BL/6 or CD-1 mouse at 1 mg/kg measured upto 24 hrs by LC-MS/MS analysis; type: ADME, organism-based; conditions: in vivo
[3] = Lipophilicity, logD of compound in octanol-water at pH 7.4 by shake-flask method; type: physicochemical

CC(C)(C)NC(=O)[C@@H]1C[C@@H]2CCCC[C@@H]2CN1C[C@@H](O)[C@H](Cc1ccccc1)NC(=O)[C@H](CC(N)=O)NC(=O)c1ccc2ccccc2n1
logD ([1]; read-out: logD): 4.5

Cc1ncsc1-c1ccc(CNC(=O)[C@@H]2C[C@@H](O)CN2C(=O)[C@@H](NC(=O)COCCOCCOCCNC(=O)C[C@@H]2N=C(c3ccc(Cl)cc3)c3c(sc(C)c3C)-n3c(C)nnc32)C(C)(C)C)cc1
logD ([1]; read-out: logD): 3.4
bioavailability [2]: 0.16%
logD [3]: 3.8

Cc1ncsc1-c1ccc(CNC(=O)[C@@H]2C[C@@H](O)CN2C(=O)[C@@H](NC(=O)C2(F)CC2)C(C)(C)C)c(OCCOc2ccc(CN3CCN(c4cc(-c5ccccc5O)nnc4N)CC3)cc2)c1
logD ([1]; read-out: logD): 4.2
bioavailability [2]: 2.7%
logD ([3]; read-out: logD): 3.1

CC1(C)[C@H](NC(=O)c2ccc(N3CCN(CC4CCN(c5ccc6c(c5)C(=O)N(C5CCC(=O)NC5=O)C6=O)CC4)CC3)cc2)C(C)(C)[C@H]1Oc1ccc(C#N)c(Cl)c1 (stereo not given in full)
logD ([1]; read-out: logD): 6.2
bioavailability [2]: 61.4%
logD ([3]; read-out: logD): 4.6

Cc1nc(CCC(=O)NCCCCC(=O)N[C@H](C(=O)N2C[C@H](O)C[C@H]2C(=O)NCc2ccc(-c3scnc3C)cc2)C(C)(C)C)ccc1-c1cnc(NCc2c(Cl)ccc3c2CCO3)n2cnnc12
logD ([1]; read-out: logD): 2.5
bioavailability [2]: 0%
logD ([3]; read-out: logD): 3.8

C=CCc1ccccc1OCC(O)CNC(C)C (stereo not given) [ALPRENOLOL]
logD ([1]; read-out: logD): 1.5

COC(=O)N[C@H](C(=O)N[C@@H](Cc1ccccc1)[C@@H](O)CN(Cc1ccc(-c2ccccn2)cc1)NC(=O)[C@@H](NC(=O)OC)C(C)(C)C)C(C)(C)C [ATAZANAVIR]
logD [1]: 4.2

N#Cc1ccc(O[C@H]2CC[C@H](NC(=O)c3ccc(N4CCC(CN5CCN(c6cc7c(cc6F)C(=O)N(C6CCC(=O)NC6=O)C7=O)CC5)CC4)nn3)CC2)cc1Cl (stereo not given in full) [BAVDEGALUTAMIDE]
logD ([1]; read-out: logD): 5
bioavailability [2]: 64.6%
logD ([3]; read-out: logD): 4.8

CN(C)CCC=C1c2ccccc2C=Cc2ccccc21 [CYCLOBENZAPRINE]
logD ([1]; read-out: logD): 3.1

Cc1ncsc1-c1ccc([C@H](C)NC(=O)[C@@H]2C[C@@H](O)CN2C(=O)[C@@H](NC(=O)CCCCCC(=O)N2CCN(CC[C@H](CSc3ccccc3)Nc3ccc(S(=O)(=O)NC(=O)c4ccc(N5CCN(CC6=C(c7ccc(Cl)cc7)CCC(C)(C)C6)CC5)cc4)cc3S(=O)(=O)C(F)(F)F)CC2)C(C)(C)C)cc1 [DT-2216]
logD ([1]; read-out: logD): 7.3
bioavailability [2]: 0.07%
logD ([3]; read-out: logD): 3.9

CCOC(=O)C1=C(C)NC(C)=C(C(=O)OC)C1c1cccc(Cl)c1Cl (stereo not given) [FELODIPINE]
logD [1]: 5.2

Cn1c(=O)n(C2CCC(=O)NC2=O)c2cccc(C#CCOC3CCN(C[C@H]4CC[C@H](n5cc(NC(=O)c6cnn7ccc(N8C[C@H]9C[C@@H]8CO9)nc67)c(C(F)F)n5)CC4)CC3)c21 (stereo not given in full) [KT-474]
logD [1]: 2.4
bioavailability [2]: 23.7%
logD ([3]; read-out: logD): 3.5

COc1cc(O[C@H]2C(C)(C)[C@H](NC(=O)c3ccc(N4CCC(CN5CCN(c6ccc(C(=O)N[C@H]7CCC(=O)NC7=O)c(F)c6)CC5)CC4)cc3)C2(C)C)ccc1C#N [LUXDEGALUTAMIDE]
logD ([1]; read-out: logD): 5
bioavailability [2]: 57.6%
logD ([3]; read-out: logD): 3.7

COC(=O)C1=C(C)NC(C)=C(C(=O)OCCN(C)Cc2ccccc2)C1c1cccc([N+](=O)[O-])c1 (stereo not given) [NICARDIPINE]
logD ([1]; read-out: logD): 5

CC1(C)CCC(CN2CCN(c3ccc(C(=O)NS(=O)(=O)c4ccc(NCC5CCOCC5)c([N+](=O)[O-])c4)c(Oc4cnc5[nH]ccc5c4)c3)CC2)=C(c2ccc(Cl)cc2)C1 [VENETOCLAX]
logD ([1]; read-out: logD): 7.9

O=C1CC[C@H](N2Cc3cc(N4CCN(CC5CCN(c6ccc([C@@H]7c8ccc(O)cc8CC[C@@H]7c7ccccc7)cc6)CC5)CC4)ccc3C2=O)C(=O)N1 [VEPDEGESTRANT]
logD [1]: 5.7
bioavailability [2]: 58.5%
logD ([3]; read-out: logD): 4.6

CC(=O)CC(c1ccccc1)c1c(O)c2ccccc2oc1=O (stereo not given) [WARFARIN]
logD ([1]; read-out: logD): 0.78
